Reference: US5519015A, “Carbapenem antibiotic compounds” (Zeneca Limited, priority 1992, dated 1996)
≈ marks a conversion by molar mass, not a printed value.

Tests used:
Assay type in all cases: cell-based
[1] = tested on: Enterobacter cloacae P99-; experiment: MIC by agar-dilution technique, Diagnostic Sensitivity Test, Enterobacter cloacae P99-
From the text: (§1) The following results were obtained for representative compounds on a standard in vitro test system using Diagnostic Sensitivity Test. The antibacterial activity is described in terms of the minimum inhibitory concentration (MIC) determined by the agar-dilution technique with an inoculum size of 10^4 CFU/spot.

B. fragilis AMP S = experiment: MIC by agar-dilution technique, Diagnostic Sensitivity Test, B. fragilis AMP S; settings: Bacteroides fragilis, inoculum 10^4 CFU/spot
From the text: as §1

P. morganii I + 001 = experiment: MIC by agar-dilution technique, Diagnostic Sensitivity Test, P. morganii I + 001; settings: Morganella morganii, inoculum 10^4 CFU/spot
From the text: as §1

E. coli DCO = experiment: MIC by agar-dilution technique, Diagnostic Sensitivity Test, E. coli DCO; settings: Escherichia coli, inoculum 10^4 CFU/spot
From the text: as §1

S. aureus Oxford = experiment: MIC by agar-dilution technique, Diagnostic Sensitivity Test, S. aureus Oxford; settings: Staphylococcus aureus, inoculum 10^4 CFU/spot
From the text: as §1

## C[C@@H](O)[C@H]1C(=O)N2C(C(=O)O)=C(S[C@@H]3CN[C@H](C(=O)Nc4csc(C(=O)O)c4)C3)[C@H](C)[C@H]12 [Example 1, (1R,5S,6S,8R,2'S,4'S)-2-(2-(2-Carboxy-4-thienylcarbamoyl)pyrrolidin-4-ylthio)-6-(1-hydroxyethyl)-1-methylcarbapenem-3-carboxylic acid]
[1]
  MIC: 8 ng/mL (≈ 0.0166 µM)
B. fragilis AMP S
  MIC: 125 ng/mL (≈ 0.26 µM)
P. morganii I + 001
  MIC: 8 ng/mL
E. coli DCO
  MIC: 8 ng/mL (≈ 0.0166 µM)
S. aureus Oxford
  MIC: 125 ng/mL (≈ 0.26 µM)
